Results: patent publication US20050106592A1, “Method for identifying a pharmacologically active substance” (priority 2002, published 2005)

How the values were obtained:
normotensive Wister rats = assay: bradykinin-potentiating effect: blood pressure measurement in anaesthetized normotensive rats; assay type: in vivo, rat
Procedure: These experiments were conducted with normotensive rats and the short-time decrease of blood pressure induced by bradykinin (and caused by vasodilatation) was measured. […] Furthermore, S545 (also corresponds to proANP48-57) was also tested in vivo at hypertensive rats (FIG. 7).
In the in vivo experiments with normotensive rats the animals were previously anaesthetized and after blood pressure stabilization treated with a constant amount of bradykinin. Subsequently, either Captopril or human BPP were administered, again followed by a constant amount of bradykinin. Afterwards the maximal blood pressure drop was determined and, on the basis of bradykinin as a factor 1, the potentiating factor was determined. In the same way, the systolic and diastolic blood pressure, the percentage middle pressure decrease and the time required to come back to the baseline values were measured (see tables 4a to 4j). A detailed experimental description is given below.
The trials were conducted on female anaesthetized normotensive Wister rats with weight ranging from 210 to 240 g.
The peptide pANP48-57 used for the in vivo assays was synthesized by Biosynthan (Berlin) with a HPLC-determined purity of 98%. […]
The middle pressure was determined from the measured diastolic (pd) and systolic (ps) blood pressure by using the following formula: pm=(ps−pd)×0.42+pd.

[1] = biological target: T1, ACE from pig kidney (EC 3.4.15.1) (Sus scrofa, UniProt F1RRW5); assay type: biochemical; details: relative to Captopril
T1 construct: angiotensin-converting-enzyme derived from pig kidney; purchased Sigma; host or cells: pig kidney (tissue-derived enzyme)
T1 sequence (F1RRW5 34-1309): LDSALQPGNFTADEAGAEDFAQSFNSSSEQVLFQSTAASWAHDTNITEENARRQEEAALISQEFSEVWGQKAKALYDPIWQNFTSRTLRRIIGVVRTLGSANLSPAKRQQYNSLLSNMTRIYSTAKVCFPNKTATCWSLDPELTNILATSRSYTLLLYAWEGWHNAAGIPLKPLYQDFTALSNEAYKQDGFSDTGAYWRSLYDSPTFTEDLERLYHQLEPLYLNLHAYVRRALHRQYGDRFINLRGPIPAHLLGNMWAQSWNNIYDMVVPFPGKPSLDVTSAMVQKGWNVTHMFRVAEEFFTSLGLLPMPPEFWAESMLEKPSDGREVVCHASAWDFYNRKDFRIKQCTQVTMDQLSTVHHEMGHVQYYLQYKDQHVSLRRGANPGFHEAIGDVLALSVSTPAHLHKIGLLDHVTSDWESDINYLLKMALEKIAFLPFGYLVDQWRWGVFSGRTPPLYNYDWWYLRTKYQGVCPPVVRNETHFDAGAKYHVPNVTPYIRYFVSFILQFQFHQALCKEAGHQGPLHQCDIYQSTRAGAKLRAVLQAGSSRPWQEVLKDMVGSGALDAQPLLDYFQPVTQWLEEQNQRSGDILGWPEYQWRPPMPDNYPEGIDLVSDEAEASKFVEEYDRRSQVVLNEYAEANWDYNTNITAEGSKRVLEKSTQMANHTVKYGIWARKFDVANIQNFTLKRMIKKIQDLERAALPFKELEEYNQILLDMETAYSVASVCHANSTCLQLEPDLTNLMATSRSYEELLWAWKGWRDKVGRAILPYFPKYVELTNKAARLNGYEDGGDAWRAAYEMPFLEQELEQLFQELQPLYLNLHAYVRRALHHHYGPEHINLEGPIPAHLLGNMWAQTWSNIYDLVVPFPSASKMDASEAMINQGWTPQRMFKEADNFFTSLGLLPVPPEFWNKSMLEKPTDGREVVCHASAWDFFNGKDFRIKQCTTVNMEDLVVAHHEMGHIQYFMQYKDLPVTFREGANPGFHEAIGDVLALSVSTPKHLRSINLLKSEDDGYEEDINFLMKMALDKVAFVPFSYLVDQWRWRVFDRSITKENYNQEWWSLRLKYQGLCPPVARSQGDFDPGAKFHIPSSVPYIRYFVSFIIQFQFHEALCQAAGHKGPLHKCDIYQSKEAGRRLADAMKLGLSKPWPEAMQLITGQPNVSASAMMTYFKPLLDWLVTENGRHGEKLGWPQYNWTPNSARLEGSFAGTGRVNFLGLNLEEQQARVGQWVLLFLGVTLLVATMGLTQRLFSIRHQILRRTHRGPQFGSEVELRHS
Procedure: These peptides were investigated for their inhibitory effect using an in vitro-ACE-inhibitor-assay with an angiotensin-converting-enzyme derived from pig kidney. Hippuryl-histidyl-leucin was used as a substrate.
The assay was performed in 96 well HTRF-plates (Packard). The concentrations used for each well were: 1 mU ACE from pig kidney (EC 3.4.15.1 (Sigma)) in 30 μl of assay buffer (25 mM HEPES; 0,3 M NaCl, pH 8.2) and 20 μl inhibitor dissolved in assay buffer (0.35-200 μM). The reaction was started by adding 50 μl of 2 mM hippuryl-histidyl-leucin (Sigma) in assay buffer. The reaction was performed at room temperature (22° C.) for 30 minutes and terminated by adding 50 μl 1 M NaOH. Afterwards 50 μl of 0.5% ortho-phtalaldehyd (Sigma) in methanol were added, 5 minutes later followed by 50 μl of 2.5 M HCl-solution to stabilize the developed fluorescence product.
The results were used to calculate the % inhibition. The IC50-values were determined graphically from a curve showing the dose-reaction ratio.
In order to minimize errors due to time-dependent differences, all pipetting steps were performed in a precise time schedule.

CC(C)C[C@H](NC(=O)[C@H](C)N)C(=O)N[C@@H](CO)C(=O)N1CCC[C@H]1C(=O)N[C@@H](CC(C)C)C(=O)N1CCC[C@H]1C(=O)N[C@@H](CCC(=O)O)C(=O)N[C@H](C(=O)N1CCC[C@H]1C(=O)N1CCC[C@H]1C(=O)O)C(C)C [Peptide S545]
molecular concentration required for the bradykinin-potentiating effect in vivo in comparison to Captopril (normotensive Wister rats; in vivo, relative to Captopril): 10 fold | bradykinin-potentiating effect (short-time decrease of blood pressure induced by bradykinin) (normotensive Wister rats; normotensive rats, anaesthetized, i.v.): concentration dependent bradykinin-potentiating | dose necessary in the ACE-assay to reach the same effect as with Captopril [1]: 1000 fold
